Measurements as given in patent publication US20130072714A1, “BIOBASED COMPOSITIONS OF DIAMMONIUM SUCCINATE, MONOAMMONIUM SUCCINATE AND/OR SUCCINIC ACID AND DERIVATIVES THEREOF” (BioAmber International S.à.r.l., priority 2011, published 2013).
“Also recorded” adds a separate entry of the source.

Test: Heated color test: SA plus 1,4-butanediol with trace glucose and/or alanine, 180° C., visual inspection
Assay type: physicochemical
Conditions: 1.0 gram 1,4-butanediol plus 0.5 gram SA, 2 hours
Method: Glass vials were charged with 1,4-butanediol, pure SA, and trace levels of either glucose, alanine, or both. The vials were heated at 180° C. for 2 hours and any color changes observed by visual inspection. [table]

| color change on heating, single impurity (impurity 10 ppm) | color change on heating, single impurity (impurity 100 ppm) | color change on heating, single impurity (impurity 1000 ppm) | color change on heating, two impurities (glucose 5 ppm, alanine 5 ppm) | color change on heating, two impurities (glucose 5 ppm, alanine 50 ppm) | color change on heating, two impurities (glucose 5 ppm, alanine 500 ppm) | color change on heating, two impurities (glucose 50 ppm, alanine 5 ppm) | color change on heating, two impurities (glucose 50 ppm, alanine 50 ppm) | color change on heating, two impurities (glucose 50 ppm, alanine 500 ppm) | color change on heating, two impurities (glucose 500 ppm, alanine 5 ppm) | color change on heating, two impurities (glucose 500 ppm, alanine 50 ppm) | color change on heating, two impurities (glucose 500 ppm, alanine 500 ppm) | Structure (SMILES) |
| --- | --- | --- | --- | --- | --- | --- | --- | --- | --- | --- | --- | --- |
| No color | No color | Slight yellow |  |  |  |  |  |  |  |  |  | C[C@H](N)C(=O)O [Alanine, alanine] |
|  |  |  | No color | yellow color; also recorded: Slight | Slight | No color | Slight | Light | No color | Slight | Light | O=C(O)CCC(=O)O [SA, succinic acid] |
